The record followed here is patent US11407767B2, “Heterocyclyl substituted pyrrolopyridines that are inhibitors of the CDK12 kinase” (The University of Nottingham, priority 2017, dated 2022).

The structures appear in SMILES notation.

CDK12/CycK, sequence (Q9NYV4 whole entry): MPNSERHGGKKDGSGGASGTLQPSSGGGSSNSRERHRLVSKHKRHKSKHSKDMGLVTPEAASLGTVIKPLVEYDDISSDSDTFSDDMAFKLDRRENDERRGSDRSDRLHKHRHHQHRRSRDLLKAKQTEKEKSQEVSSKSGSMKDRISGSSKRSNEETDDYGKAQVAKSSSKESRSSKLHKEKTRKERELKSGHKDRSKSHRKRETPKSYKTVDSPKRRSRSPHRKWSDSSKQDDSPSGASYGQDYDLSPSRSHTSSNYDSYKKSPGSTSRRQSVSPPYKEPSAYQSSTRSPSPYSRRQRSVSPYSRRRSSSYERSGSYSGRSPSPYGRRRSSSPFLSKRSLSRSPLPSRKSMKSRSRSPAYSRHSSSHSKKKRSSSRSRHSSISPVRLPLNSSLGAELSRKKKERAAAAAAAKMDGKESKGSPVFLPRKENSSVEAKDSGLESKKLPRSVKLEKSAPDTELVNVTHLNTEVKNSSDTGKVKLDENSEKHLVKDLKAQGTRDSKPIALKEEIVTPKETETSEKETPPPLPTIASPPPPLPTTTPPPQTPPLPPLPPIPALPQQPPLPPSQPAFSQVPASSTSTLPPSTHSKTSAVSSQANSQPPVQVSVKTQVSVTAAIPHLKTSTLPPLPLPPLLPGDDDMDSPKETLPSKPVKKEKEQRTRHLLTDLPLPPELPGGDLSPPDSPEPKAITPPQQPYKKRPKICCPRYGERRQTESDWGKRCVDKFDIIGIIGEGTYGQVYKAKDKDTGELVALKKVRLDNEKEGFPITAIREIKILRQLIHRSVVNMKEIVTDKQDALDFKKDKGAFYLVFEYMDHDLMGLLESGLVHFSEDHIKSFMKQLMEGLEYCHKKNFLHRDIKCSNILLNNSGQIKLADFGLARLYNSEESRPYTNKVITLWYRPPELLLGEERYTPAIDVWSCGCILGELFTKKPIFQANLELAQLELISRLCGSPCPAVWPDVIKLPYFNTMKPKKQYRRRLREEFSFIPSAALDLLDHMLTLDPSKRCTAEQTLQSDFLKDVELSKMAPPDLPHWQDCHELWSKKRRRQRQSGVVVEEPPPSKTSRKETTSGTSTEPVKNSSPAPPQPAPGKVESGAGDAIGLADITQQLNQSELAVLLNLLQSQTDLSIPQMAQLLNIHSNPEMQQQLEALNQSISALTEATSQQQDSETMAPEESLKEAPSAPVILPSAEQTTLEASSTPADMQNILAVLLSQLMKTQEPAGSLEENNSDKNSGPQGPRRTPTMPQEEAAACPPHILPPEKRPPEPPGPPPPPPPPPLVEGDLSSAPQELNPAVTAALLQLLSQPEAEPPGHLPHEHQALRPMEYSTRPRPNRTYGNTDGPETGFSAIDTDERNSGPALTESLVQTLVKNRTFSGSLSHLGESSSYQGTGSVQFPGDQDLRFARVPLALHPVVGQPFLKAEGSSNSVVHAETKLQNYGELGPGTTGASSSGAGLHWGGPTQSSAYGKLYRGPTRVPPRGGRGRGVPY
CDK12/CycK, sequence (O75909 whole entry partner): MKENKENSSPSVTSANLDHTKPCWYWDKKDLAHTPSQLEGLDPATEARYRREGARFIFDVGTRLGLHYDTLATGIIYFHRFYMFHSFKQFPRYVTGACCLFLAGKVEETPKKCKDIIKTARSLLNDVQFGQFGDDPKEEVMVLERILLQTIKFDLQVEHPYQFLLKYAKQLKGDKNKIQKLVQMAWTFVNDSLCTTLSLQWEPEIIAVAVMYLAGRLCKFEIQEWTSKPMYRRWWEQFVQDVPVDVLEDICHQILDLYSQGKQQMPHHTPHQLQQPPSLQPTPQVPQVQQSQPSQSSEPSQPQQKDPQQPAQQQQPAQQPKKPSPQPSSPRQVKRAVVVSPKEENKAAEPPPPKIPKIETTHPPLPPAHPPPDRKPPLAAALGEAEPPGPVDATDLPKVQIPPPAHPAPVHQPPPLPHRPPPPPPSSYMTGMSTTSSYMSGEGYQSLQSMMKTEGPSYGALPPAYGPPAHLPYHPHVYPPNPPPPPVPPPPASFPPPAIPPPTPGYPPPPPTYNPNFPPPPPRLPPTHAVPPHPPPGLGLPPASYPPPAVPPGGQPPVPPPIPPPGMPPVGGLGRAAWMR

The assay addresses CDK12/CycK (Homo sapiens, UniProt Q9NYV4). The experiment in a line: Inhibition of CDK12 (ADP-Glo kinase assay). As to conditions: 60 nM CDK12/CycK, 30 minutes pre-incubation, 1 μM ATP, 0.5 μM RBER-IRStide substrate, 1 h at 25° C., read-out: CDK12/cyclin K IC50. The class given is biochemical. The method, then:
Assay buffer comprised 50 mM HEPES pH 7.5, 1 mM DTT, 20 mM MgCl2, 3 mM MnCl2, 3 μM Na3VO4 and 50 μg/ml PEG8000. Kinase reactions were carried out in 384-well Optiplates™ (PerkinElmer 6007299). Test compounds were dissolved & diluted in dimethyl sulfoxide (DMSO) and cross diluted into assay buffer with a final DMSO concentration of 1% (v/v) in the assay. Test compounds (or 1% DMSO in control and blank wells) were pre-incubated with 60 nM CDK12/CycK for 30 minutes. After this time 1 μM Adenosine-5′-triphosphate (ATP) and 0.5 μM RBER-IRStide substrate (ProQinase 0863-0000-1) were added to commence the kinase reaction. Incubations were carried out for 1 h at 25° C. with kinase activity determined using the ADP-Glo™ reagent from Promega according to the manufacturer's instructions. Light generated is proportional to kinase activity and measured using a luminometer (EnVision, PerkinElmer). The signal obtained in the blank wells (containing no kinase) was subtracted from all other wells and IC50 values were determined by fitting a sigmoidal curve to % inhibition of control versus Log10 compound concentration.
(In general: ADP-Glo first removes unused ATP, then detects ADP through luciferase.)
As to `C=CC(=O)N1CCC1C(=O)NCCc1cc2c(-c3cnn4ncccc34)ccnc2[nH]1` (single isomer, unassigned) [Example 40], the IC50 was < 0.1 µM.

Turning to `C=CC(=O)N1CCO[C@@H](C(=O)NCCc2cc3c(-c4cnn5ncccc45)ccnc3[nH]2)C1` (single isomer, unassigned) [Example 61], the IC50 is < 0.1 µM.

For `CC(=O)N1CCO[C@H](C(=O)NCCc2cc3c(-c4cnn5ncccc45)ccnc3[nH]2)C1` (single isomer, unassigned) [Example 62], the IC50 was < 0.1 µM.

Turning to `c1cnn2ncc(-c3ccnc4[nH]c([C@@H]5CCNC5)cc34)c2c1` (single isomer, unassigned) [Example 124, 3-(2-(Pyrrolidin-3-yl)-1H-pyrrolo[2,3-b]pyridin-4-yl)pyrazolo[1,5-b]pyridazine], the IC50 is 0.1 to 1 µM.

`c1cnn2ncc(-c3ccnc4[nH]c([C@H]5CCNC5)cc34)c2c1` (single isomer, unassigned) [Example 125, 3-(2-(Pyrrolidin-3-yl)-1H-pyrrolo[2,3-b]pyridin-4-yl)pyrazolo[1,5-b]pyridazine]: the IC50 fell in the range of 0.1 to 1 µM.

Consider `C=CC(=O)Nc1ccc(C(=O)N2CC[C@@H](c3cc4c(-c5cnn6ncccc56)ccnc4[nH]3)C2)cc1` (single isomer, unassigned) [Example 148, N-(4-(3-(4-(Pyrazolo[1,5-b]pyridazin-3-yl)-1H-pyrrolo[2,3-b]pyridin-2-yl)pyrrolidine-1-carbonyl)phenyl)acrylamide], for which the IC50 was < 0.1 µM.

Turning to `C=CC(=O)Nc1cccc(C(=O)N2CC[C@@H](c3cc4c(-c5cnn6ncccc56)ccnc4[nH]3)C2)c1` (single isomer, unassigned) [Example 149, N-(3-(3-(4-(Pyrazolo[1,5-b]pyridazin-3-yl)-1H-pyrrolo[2,3-b]pyridin-2-yl)pyrrolidine-1-carbonyl)phenyl)acrylamide], the IC50 was < 0.1 µM.

For `Cc1cc(-c2cnn3ncccc23)c2cc[nH]c2n1` [Example 1, 3-(6-Methyl-1H-pyrrolo[2,3-b]pyridin-4-yl)pyrazolo[1,5-b]pyridazine], the IC50 lay within 1 to 30 µM.

For `CN(C)C(=O)c1cc2c(-c3cnn4ncccc34)ccnc2[nH]1` [Example 2, N,N-Dimethyl-4-(pyrazolo[1,5-b]pyridazin-3-yl)-1H-pyrrolo[2,3-b]pyridine-2-carboxamide], the IC50 lay within 1 to 30 µM.

On to `COCCNC(=O)c1cc2c(-c3cnn4ncccc34)ccnc2[nH]1` [Example 3, N-(2-Methoxyethyl)-4-(pyrazolo[1,5-b]pyridazin-3-yl)-1H-pyrrolo[2,3-b]pyridine-2-carboxamide], for which the IC50 was in the range of 1 to 30 µM.

As for `CC(C)CNC(=O)c1cc2c(-c3cnn4ncccc34)ccnc2[nH]1` [Example 4, N-Isobutyl-4-(pyrazolo[1,5-b]pyridazin-3-yl)-1H-pyrrolo[2,3-b]pyridine-2-carboxamide], the IC50 fell in the range of 1 to 30 µM.

Take `CN(C)CCNC(=O)c1cc2c(-c3cnn4ncccc34)ccnc2[nH]1` [Example 5, N-(2-(Dimethylamino)ethyl)-4-(pyrazolo[1,5-b]pyridazin-3-yl)-1H-pyrrolo[2,3-b]pyridine-2-carboxamide]: the IC50 was 1 to 30 µM.

On to `Cc1c[nH]c2nccc(-c3cnn4ncccc34)c12` [Example 8, 3-(3-Methyl-1H-pyrrolo[2,3-b]pyridin-4-yl)pyrazolo[1,5-b]pyridazine], for which the IC50 fell in the range of 1 to 30 µM.

With `Cc1cnc2[nH]ccc2c1-c1cnn2ncccc12` [Example 9, 3-(5-Methyl-1H-pyrrolo[2,3-b]pyridin-4-yl)pyrazolo[1,5-b]pyridazine], the IC50 is 1 to 30 µM.

As to `c1cnn2ncc(-c3ccnc4[nH]c(CN5CCOCC5)cc34)c2c1` [Example 12, 4-((4-(Pyrazolo[1,5-b]pyridazin-3-yl)-1H-pyrrolo[2,3-b]pyridin-2-yl)methyl)morpholine], the IC50 lay in the range of 1 to 30 µM.

As to `O=C(CN1CCOCC1)NCc1cc2c(-c3cnn4ncccc34)ccnc2[nH]1` [Example 13, 2-Morpholino-N-((4-(pyrazolo[1,5-b]pyridazin-3-yl)-1H-pyrrolo[2,3-b]pyridin-2-yl)methyl)acetamide], the IC50 lay within 1 to 30 µM.

As for `CN1CCN(CC(=O)NCc2cc3c(-c4cnn5ncccc45)ccnc3[nH]2)CC1` [Example 14, 2-(4-Methylpiperazin-1-yl)-N-((4-(pyrazolo[1,5-b]pyridazin-3-yl)-1H-pyrrolo[2,3-b]pyridin-2-yl)methyl)acetamide], the IC50 lay in the range of 1 to 30 µM.

`CC(C)(C)OC(=O)N1CCN(Cc2cc3c(-c4cnn5ncccc45)ccnc3[nH]2)CC1` [Example 15, tert-Butyl 4-((4-(pyrazolo[1,5-b]pyridazin-3-yl)-1H-pyrrolo[2,3-b]pyridin-2-yl)methyl)piperazine-1-carboxylate]: the IC50 lay within 1 to 30 µM.

Turning to `CN1CCN(Cc2cc3c(-c4cnn5ncccc45)ccnc3[nH]2)CC1` [Example 16, 3-(2-((4-Methylpiperazin-1-yl)methyl)-1H-pyrrolo[2,3-b]pyridin-4-yl)pyrazolo[1,5-b]pyridazine], the IC50 is 0.1 to 1 µM.

On to `CN(C)CCNCc1cc2c(-c3cnn4ncccc34)ccnc2[nH]1` [Example 17, N1,N1-Dimethyl-N2-((4-(pyrazolo[1,5-b]pyridazin-3-yl)-1H-pyrrolo[2,3-b]pyridin-2-yl)methyl)ethane-1,2-diamine], for which the IC50 was 1 to 30 µM.

Regarding `c1ccn2ncc(-c3ccnc4[nH]ccc34)c2c1` [Example 18, 4-(Pyrazolo[1,5-a]pyridin-3-yl)-1H-pyrrolo[2,3-b]pyridine], the IC50 was in the range of 1 to 30 µM.

`CCn1nccc1-c1ccnc2[nH]ccc12` [Example 19, 4-(1-Ethyl-1H-pyrazol-5-yl)-1H-pyrrolo[2,3-b]pyridine]: the IC50 was in the range of 1 to 30 µM.

Turning to `COc1cnn2ncc(-c3ccnc4[nH]ccc34)c2c1` [Example 23, 5-Methoxy-3-(1H-pyrrolo[2,3-b]pyridin-4-yl)pyrazolo[1,5-b]pyridazine], the IC50 fell in the range of 1 to 30 µM.

On to `COCCOc1cnn2ncc(-c3ccnc4[nH]ccc34)c2c1` [Example 24, 5-(2-Methoxyethoxy)-3-(1H-pyrrolo[2,3-b]pyridin-4-yl)pyrazolo[1,5-b]pyridazine], for which the IC50 lay in the range of 1 to 30 µM.

As to `CC1(C)OCC(COc2cnn3ncc(-c4ccnc5[nH]ccc45)c3c2)O1` (centres unmarked) [Example 25, 5-((2,2-Dimethyl-1,3-dioxolan-4-yl)methoxy)-3-(1H-pyrrolo[2,3-b]pyridin-4-yl)pyrazolo[1,5-b]pyridazine], the IC50 fell in the range of 1 to 30 µM.

Regarding `Cc1ccc2c(-c3ccnc4[nH]ccc34)cnn2n1` [Example 26, 6-Methyl-3-(1H-pyrrolo[2,3-b]pyridin-4-yl)pyrazolo[1,5-b]pyridazine], the IC50 fell in the range of 1 to 30 µM.

With `c1cnc2ncc(-c3ccnc4[nH]ccc34)n2c1` [Example 29, 3-(1H-Pyrrolo[2,3-b]pyridin-4-yl)imidazo[1,2-a]pyrimidine], the IC50 lay within 1 to 30 µM.

Consider `NCCc1cc2c(-c3cnn4ncccc34)ccnc2[nH]1` [Example 30, 2-(4-(Pyrazolo[1,5-b]pyridazin-3-yl)-1H-pyrrolo[2,3-b]pyridin-2-yl)ethan-1-amine], for which the IC50 is 0.1 to 1 µM.

Take `CCNCCc1cc2c(-c3cnn4ncccc34)ccnc2[nH]1` [Example 31, N-ethyl-2-(4-(pyrazolo[1,5-b]pyridazin-3-yl)-1H-pyrrolo[2,3-b]pyridin-2-yl)ethan-1-amine]: the IC50 was in the range of 0.1 to 1 µM.
